The values that follow come from patent US20120027812A1, “INTRAOCULAR LENSES TREATED WITH ALKYLPHOSPHOCHOLINES FOR PHARMACOLOGICAL AFTERCATARACT PROPHYLAXIS” (priority 2009, published 2012).

Data set [1] has as its system human lens epithelial cells. Briefly: APC-coated intraocular lens laid on cultured lens epithelial cells (Example 3, FIG. 6 and 7). It counts as cell-based. Particulars: as coating on IOLs of hydrophobic acrylates, hydrophilic acrylates and silicones; MTT. How it is done:
A tetrazolium reduction assay [MTT (3-[4,5-dimethylthiazol-2-yl]-2,5-diphenyltetrazolium bromide] (Sigma-Aldrich) was carried out to determine the cell count. The intraocular lenses were removed, the cells were washed with PBS and incubated with the MTT reagent for 1 hour at 37° C. Only vital cells metabolise the solution. Subsequently, the cell membrane was dissolved with DMSO (dimethylsulphoxide) and the optical thickness was measured in the ELISA reader at 550 nm. In this case, the optical thickness correlates with the number of proliferating cells.
The intraocular lenses coated with alkylphosphocholines are introduced into a cell culture volume of 500 μl, which corresponds to the volume of the human lens capsular bag in which the intraocular lenses are implanted in the human cataract operation. Moreover, the coated intraocular lenses in vitro are introduced into a cell culture with human lens epithelial cells which are already proliferating. […]
Effectiveness of an Intraocular Lens Coated with APCs in the Prophylaxis of Aftercataract Intraocular lenses are coated with APC, as explained in Example 1,m and kept sterile at room temperature. […] After 3, 5 and 7 days, the lenses are removed and the cell count of the cells left in the cell culture dishes are determined, as described in 2.1, by cell counters and by the MTT test. […]

A further data set concerns cat eyes (retina). Briefly: Long-term tolerance after intravitreal administration in cat eyes. In kind it is in vivo. The conditions noted are these: 28 days after intravitreal administration.
The subject of the next data set is rat eyes (retina). Particulars: seven days after a single injection into the vitreous body; cited from earlier work.
For data set [2], the system named is rat retina. Briefly: Functional analysis on retina ex vivo (electroretinogram). The conditions noted are these: concentration of up to 25 μM in the total solution.
In data set [3] the test system is Müller glial cells and subretinal pigment epithelial cells. The conditions noted are these: single intravitreal administration one day after induced retinal detachment; cited from earlier work.
Data set [4] can be described thus: Stability of the coating to washing with physiological saline solution. In kind it is physicochemical. Particulars: repeated washing or rinsing with physiological saline solution. From the text: 1.3 Stability of the coating 10 intraocular lenses were coated with erufosin, as described in example 1.2. The lenses were subsequently each separately transferred into new test tubes and subjected to four washing steps with physiological saline solution. In a further extraction step using methanol/acetonitrile (ratio 9:1), the erufosin adhering to the lenses was removed and determined by mass spectroscopy. The amount of erufosin determined was between […] per lens.

In data set [5] the test system is rat retina. The conditions noted are these: clinically administered doses (4 mg/ml); cited from earlier work.

`CCCCCCCC/C=C\CCCCCCCCOP(=O)([O-])OCC[N+](C)(C)C` [OIPC, oleylphosphocholine]: the “cell growth of lens epithelial cells which are already proliferating” value in data set [1] is “can inhibit the cell growth”.

Consider `CCCCCCCC/C=C\CCCCCCCCCCCCOP(=O)([O-])OCC[N+](C)(C)C` [ErPC, erucylphosphocholine], for which, in the data set with cat eyes (retina), the retinal toxicity entry is “no sign of retinal toxicity”. Besides, in the data set on rat eyes (retina), the “damage to the retinal function (light and electron microscopy, ERG)” value is given as “no damage to the retinal function could be detected”.

As for `CCCCCCCC/C=C\CCCCCCCCCCCCOP(=O)([O-])OCCC[N+](C)(C)C` [ErPC3, erucylphosphohomocholine], in the data set with rat retina [2], the “changes in the electroretinogram” value is recorded as “did not produce any changes in the electroretinogram”. In data set [3], the “intraretinal proliferation of Müller glial cells and subretinal pigment epithelial cells” value is “significant inhibition”; the “morphologically detectable toxic side-effects” value is on record as “without morphologically detectable toxic side-effects”. Further, the “cell growth of lens epithelial cells which are already proliferating” value in data set [1] is on record as “can inhibit the cell growth”. Besides, the “removal of the coating from the lenses” value in data set [4] is “no noticeable removal”.

In the case of `C[C@]12C=CC(=O)C=C1CC[C@H]1[C@@H]3C[C@@H](O)[C@](O)(C(=O)CO)[C@@]3(C)C[C@H](O)[C@@]12F` [triamcinolone], the “retinal toxicity on the retina ex vivo test subject” value in the data set on rat retina [5] is “retinal toxicity”.
